Results as given in patent publication US20240368106A1, “HYDROXY AND ALKOXY COUMARINS AS MODULATORS OF POLRMT” (Pretzel Therapeutics, Inc., priority 2021, published 2024).

Each compound was assayed against POLRMT (Homo sapiens (Human), UniProt O00411) (assay: homogeneous TR-FRET assay of mitochondrial transcription (inhibition of POLRMT)). Details: 7.5 nM POLRMT, 15 nM TFB2M, 30 nM TFAM, 0.5 nM DNA template, 500 μM NTPs, 37° C., 60 minutes.
Type: biochemical
Method: The inhibitory activity of the compounds of the present invention against POLRMT were determined by assays based on Bergbrede, T., et al., “An adaptable high-throughput technology enabling the identification of specific transcription modulators,” SLAC Discov., 22, 378-386 (2017).
The ability of some compounds of the present invention to inhibit POLRMT were determined in a homogeneous TR-FRET Assay using high-throughput screening in a 384-well plate format. This method is used to monitor the activity of mitochondrial transcription through measurement of its product, a 407 bp long RNA transcript. Detection of the product is facilitated by hybridization of two DNA-oligonucleotide probes to specific and adjacent sequences within the RNA product sequence. Upon annealing of the probes, two fluorophores are coupled directly to an acceptor nucleotide probe (ATT0647, 5′), or introduced via a coupled streptavidin with a biotinylated donor nucleotide probe (Europium cryptate) that is brought into sufficient proximity to serve as a fluorescence-donor-acceptor pair. Thus, a FRET signal at 665 nm is generated upon excitation at 340 nm.
Proteins used as transcription factors (POLRMT: NP_005026.3, TFAM: NP_003192.1, TFB2M: NP_071761.1) are diluted from their stocks to working concentrations of 1 μM, 20 μM and 4 μM respectively, in a dilution buffer containing 20 mM Tris-HCl (pH 8.0), 200 mM NaCl, 10% (v/v) glycerol, 1 mM Dithiothreitol (DTT), 0.5 mM EDTA.
DNA template is a pUC18 plasmid with the mitochondrial light strand promotor sequence (1-477) cloned between HindIII and BamHI sites. The DNA template is restriction linearized proximal to the promotor 3′-end (pUC-LSP). The reaction mixture (10 uL) containing 7.5 nM POLRMT, 15 nM of TFB2M, 30 nM of TFAM, 0.5 nM of DNA template and 500 μM nucleotide triphosphate mix (NTPs) in a reaction buffer (containing 10 mM Tris-HCl (pH 7.5), 10 mM MgCl2, 40 mM NaCl, 10 mM DTT, 0.005% (w/v) Tween-20, 160 units/ml Rnase inhibitor and 0.1 mg/mL BSA) are dispensed to compounds in microplates, using a Thermo Multidrop® dispenser, and incubated at 37° C. in a VWR INCU-Line incubator for 60 minutes after mixing. No nucleotide triphosphate mix is added to negative control samples. Microplates with compounds to be tested in the assay are prepared from 10 mM compound stocks in 100% DMSO, equal amounts of DMSO without any compound are added to positive control and negative control samples.
During the incubation, a mix of the detection reagents is prepared in a buffer such that the enzymatic reaction is terminated due to chelating of Mg-ions and increased ionic strength, containing 50 mM Tris-HCl (pH 7.5), 700 mM NaCl, 20 mM EDTA, and 0.010% (w/v) Tween-20. Europium-streptavidin is pre-incubated with a 200-fold molar excess of a random sequence oligonucleotide to block unspecific binding of oligo, for two hours at ambient temperature in the dark. Afterwards, the blocked Europium-streptavidin is kept on ice until use.
At the end of the enzymatic reaction time, 5 μL detection oligo mix in the detection buffer is added, and assay plates are mixed and kept at ambient temperature for one hour, protected from light. The concentration of the Acceptor nucleotide oligo (e.g., ATTO647N-5′-[…]-3′) and Donor nucleotide oligo (e.g., bio-5′-AACACATCTCT(-bio)GCCAAACCCCA-bio-3′) in each assay well is 1 nM, and 3 nM, respectively.
After incubation with oligo mix, 5 μL of pre-blocked Europium-streptavidin reagent is dispensed to each assay well, assay plates are again mixed and kept at ambient temperature for one hour, protected from light.
The generated signal is measured with BMG Pherastar microtiter plate reader with a TRF light unit, using excitation at 340 nm, an integration time of 200 μs, and a delay time of 100 μs, before detection at 620 nm and 665 nm. The ratio of donor- and acceptor-fluorescence is used as a measure of the generated transcript product (i.e. enzymatic activity).

Chain of POLRMT (O00411 42-1230): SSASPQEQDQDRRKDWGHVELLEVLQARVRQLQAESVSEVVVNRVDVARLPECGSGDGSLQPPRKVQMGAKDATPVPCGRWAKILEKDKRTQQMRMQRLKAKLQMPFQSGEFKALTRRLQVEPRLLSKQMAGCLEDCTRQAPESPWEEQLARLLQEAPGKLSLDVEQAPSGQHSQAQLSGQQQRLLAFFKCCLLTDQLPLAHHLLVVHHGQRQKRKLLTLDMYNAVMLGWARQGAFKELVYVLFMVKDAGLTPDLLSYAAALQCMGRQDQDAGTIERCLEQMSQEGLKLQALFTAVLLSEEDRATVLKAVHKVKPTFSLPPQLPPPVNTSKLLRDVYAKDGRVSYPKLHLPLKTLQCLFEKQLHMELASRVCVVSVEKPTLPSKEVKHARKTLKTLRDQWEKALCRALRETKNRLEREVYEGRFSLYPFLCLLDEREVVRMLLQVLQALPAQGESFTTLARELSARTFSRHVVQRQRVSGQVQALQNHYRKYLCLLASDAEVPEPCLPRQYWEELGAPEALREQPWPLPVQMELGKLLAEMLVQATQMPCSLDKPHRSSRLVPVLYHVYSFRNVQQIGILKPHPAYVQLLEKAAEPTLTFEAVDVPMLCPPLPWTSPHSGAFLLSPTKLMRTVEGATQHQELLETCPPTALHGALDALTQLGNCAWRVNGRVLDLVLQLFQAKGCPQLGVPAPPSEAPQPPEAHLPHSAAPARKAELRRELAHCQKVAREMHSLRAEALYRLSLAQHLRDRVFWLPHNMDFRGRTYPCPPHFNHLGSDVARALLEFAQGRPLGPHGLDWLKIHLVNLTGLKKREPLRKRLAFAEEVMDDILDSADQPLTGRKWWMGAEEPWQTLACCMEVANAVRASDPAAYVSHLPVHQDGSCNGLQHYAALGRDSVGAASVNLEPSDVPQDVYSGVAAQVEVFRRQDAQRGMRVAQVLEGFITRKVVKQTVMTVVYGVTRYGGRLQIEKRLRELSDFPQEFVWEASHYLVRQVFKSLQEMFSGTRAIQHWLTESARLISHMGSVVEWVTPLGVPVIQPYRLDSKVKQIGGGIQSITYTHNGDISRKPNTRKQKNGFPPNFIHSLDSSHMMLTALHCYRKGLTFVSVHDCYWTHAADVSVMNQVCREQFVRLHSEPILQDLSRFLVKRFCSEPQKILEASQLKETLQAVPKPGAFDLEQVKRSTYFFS

Compound | IC50 [nM]
Cc1ccccc1-c1cc(=O)oc2cc(O)ccc12 [Example 01, 7-hydroxy-4-(o-tolyl)-2H-chromen-2-one] | 3000
Cc1cc(O)cc2oc(=O)cc(-c3ccc(F)cc3)c12 [Example 16, 4-(4-fluorophenyl)-7-hydroxy-5-methyl-2H-chromen-2-one] | > 100000
CCCOc1ccc2c(-c3ncccc3C)cc(=O)oc2c1 [Example 64, 4-(3-methylpyridin-2-yl)-7-propoxy-2H-chromen-2-one] | 54000
2-((4-(2-chloro-4-fluorophenyl)-2-oxo-2H-chromen-7-yl)oxy)-3-methoxypropanamide [Example 76] | 44000
CCC(COC)Oc1ccc2c(-c3ccccc3C)cc(=O)oc2c1 (single isomer, unassigned) [Example 46, 7-((1-methoxybutan-2-yl)oxy)-4-(o-tolyl)-2H-chromen-2-one] | 300
CCCOc1ccc2c(-c3ccc(F)cc3Cl)cc(=O)oc2c1 [Example 31, 4-(2-chloro-4-fluorophenyl)-7-propoxy-2H-chromen-2-one] | 200
COc1ccccc1-c1cc(=O)oc2cc(O)ccc12 [Example 50, 7-hydroxy-4-(2-methoxyphenyl)-2H-chromen-2-one] | 10000
CCCOc1ccc2c(-c3cccnc3C)cc(=O)oc2c1 [Example 53, 4-(2-methylpyridin-3-yl)-7-propoxy-2H-chromen-2-one] | 800
CC(=O)N1CCCC(Oc2ccc3c(-c4ccc(F)cc4Cl)cc(=O)oc3c2)C1 (centres unmarked) [Example 57, 7-((1-acetylpiperidin-3-yl)oxy)-4-(2-chloro-4-fluorophenyl)-2H-chromen-2-one] | 4000
COCC(C)Oc1ccc2c(-c3ccccc3C)cc(=O)oc2c1 (single isomer, unassigned) [Example 26, 7-((1-methoxypropan-2-yl)oxy)-4-(o-tolyl)-2H-chromen-2-one] | 300
COc1ccc2c(-c3ccc(F)cc3Cl)cc(=O)oc2c1 [Example 21, 4-(2-chloro-4-fluorophenyl)-7-methoxy-2H-chromen-2-one] | 4000
COCC(C)Oc1cc(C)c2c(-c3ccccc3C)cc(=O)oc2c1 (single isomer, unassigned) [Example 60, 7-((1-methoxypropan-2-yl)oxy)-5-methyl-4-(o-tolyl)-2H-chromen-2-one] | 500
CC(=O)N1CCC(Oc2ccc3c(-c4ccc(F)cc4Cl)cc(=O)oc3c2)CC1 [Example 56, 7-((1-acetylpiperidin-4-yl)oxy)-4-(2-chloro-4-fluorophenyl)-2H-chromen-2-one] | 8000
COCC(C)Oc1cc(C)c2c(-c3ccccc3C)cc(=O)oc2c1 (single isomer, unassigned) [Example 59, 7-((1-methoxypropan-2-yl)oxy)-5-methyl-4-(o-tolyl)-2H-chromen-2-one] | 600
CCC(COC)Oc1ccc2c(-c3ccccc3C)cc(=O)oc2c1 (single isomer, unassigned) [Example 45, 7-((1-methoxybutan-2-yl)oxy)-4-(o-tolyl)-2H-chromen-2-one] | 100
CCCOc1ccc2c(-c3cscc3C)cc(=O)oc2c1 [Example 33, 4-(4-methylthiophen-3-yl)-7-propoxy-2H-chromen-2-one] | 200
CCCOc1ccc2c(-c3ccccc3C(F)(F)F)cc(=O)oc2c1 [Example 30, 7-propoxy-4-(2-(trifluoromethyl)phenyl)-2H-chromen-2-one] | 1000
CCCOc1ccc2c(-c3csc(C)c3C)cc(=O)oc2c1 [Example 51, 4-(4,5-dimethylthiophen-3-yl)-7-propoxy-2H-chromen-2-one] | 400

The next lines start with the values.

IC50 [nM] | Compound
500 | Cc1ccccc1-c1cc(=O)oc2cc(OC(CO)C(=O)N(C)C)ccc12 (single isomer, unassigned) [Example 78, 3-hydroxy-N,N-dimethyl-2-[4-(o-tolyl)-2-oxo-2H-chromen-7-yl]oxy-propanamide]
2000 | 2-((4-(2-chloro-4-fluorophenyl)-2-oxo-2H-chromen-7-yl)oxy)-3-methoxypropanamide [Example 77]
> 100000 | CNC(=O)C(CO)Oc1ccc2c(-c3ccccc3C)cc(=O)oc2c1 (single isomer, unassigned) [Example 98, 3-hydroxy-N-methyl-2-[4-(o-tolyl)-2-oxo-chromen-7-yl]oxy-propanamide]
90 | COCC(Oc1ccc2c(-c3ccccc3Cl)cc(=O)oc2c1)C(=O)N(C)C (single isomer, unassigned) [Example 94, 2-((4-(2-chlorophenyl)-2-oxo-2H-chromen-7-yl)oxy)-3-methoxy-N,N-dimethylpropanamide]
500 | COCCNC(=O)C(COC)Oc1ccc2c(-c3ccccc3C)cc(=O)oc2c1 (single isomer, unassigned) [Example 88, 3-methoxy-N-(2-methoxyethyl)-2-((2-oxo-4-(o-tolyl)-2H-chromen-7-yl)oxy)propanamide]
32000 | Cc1ccccc1-c1cc(=O)oc2cc(OC(CO)C(=O)N(C)C)ccc12 (single isomer, unassigned) [Example 79, 3-hydroxy-N,N-dimethyl-2-[4-(o-tolyl)-2-oxo-2H-chromen-7-yl]oxy-propanamide]
5000 | COCC(Oc1ccc2c(-c3ccccc3C)cc(=O)oc2c1)C(=O)NCC(F)(F)F (single isomer, unassigned) [Example 82, 3-methoxy-2-((2-oxo-4-(o-tolyl)-2H-chromen-7-yl)oxy)-N-(2,2,2-trifluoroethyl)propanamide]
> 100000 | COCC(Oc1ccc2c(-c3ccc(F)cc3Cl)cc(=O)oc2c1)C(=O)N(C)C (single isomer, unassigned) [Example 86, 2-((4-(2-chloro-4-fluorophenyl)-2-oxo-2H-chromen-7-yl)oxy)-3-methoxy-N,N-dimethylpropanamide]
30 | Cc1cccc(C)c1-c1cc(=O)oc2cc(OCC#N)ccc12 [Example 107, 2-((4-(2,6-dimethylphenyl)-2-oxo-2H-chromen-7-yl)oxy)acetonitrile]
18000 | COCC(Oc1ccc2c(-c3ccccc3Cl)cc(=O)oc2c1)C(=O)N(C)C (single isomer, unassigned) [Example 93, 2-((4-(2-chlorophenyl)-2-oxo-2H-chromen-7-yl)oxy)-3-methoxy-N,N-dimethylpropanamide]
200 | CCNC(=O)C(COC)Oc1ccc2c(-c3ccccc3C)cc(=O)oc2c1 (single isomer, unassigned) [Example 81, N-ethyl-3-methoxy-2-((2-oxo-4-(o-tolyl)-2H-chromen-7-yl)oxy)propanamide]
36000 | COCCNC(=O)C(COC)Oc1ccc2c(-c3ccccc3C)cc(=O)oc2c1 (single isomer, unassigned) [Example 87, 3-methoxy-N-(2-methoxyethyl)-2-((2-oxo-4-(o-tolyl)-2H-chromen-7-yl)oxy)propanamide]
200 | COCC(Oc1ccc2c(-c3ccc(F)cc3Cl)cc(=O)oc2c1)C(=O)N(C)C (single isomer, unassigned) [Example 85, 2-((4-(2-chloro-4-fluorophenyl)-2-oxo-2H-chromen-7-yl)oxy)-3-methoxy-N,N-dimethylpropanamide]
15000 | CCNC(=O)C(COC)Oc1ccc2c(-c3ccccc3C)cc(=O)oc2c1 (single isomer, unassigned) [Example 80, N-ethyl-3-methoxy-2-((2-oxo-4-(o-tolyl)-2H-chromen-7-yl)oxy)propanamide]
